From patent publication US6828343B2, “Bicyclic pyrrolyl amides as glycogen phosphorylase inhibitors” (Pfizer, Inc., priority 1999, dated 2004) come the findings set out here.

In turn, `O=C(N[C@@H](Cc1ccccc1)C(=O)N1CCOCC1)c1cc2cc(Cl)sc2[nH]1` [Example 19, 2-chloro-6H-thieno[2,3-b]pyrrole-5-carboxylic acid [(1S)-benzyl-2-morpholin-4-yl-2-oxo-ethyl]-amide] displayed a melting point of 108 to 110 °C.
